Measurements from patent US20160122307A1, “PERHYDROQUINOXALINE DERIVATIVES” (DR. AUGUST WOLFF GMBH & CO. KG ARZNEIMITTEL, priority 2013, published 2016).
Where two headings read alike, the source gives them in different places.

Molecular target: Human opiate κ receptors (Homo sapiens, UniProt P41145)
Assay: κ opioid receptor functional assay, [35S]GTPγS binding (assay C)
Type: biochemical
Conditions: for activation at 1 µM: 0.5 h, read-out: % activation functional assay at 1 μM
[1] = read-out: EC50 (nM) [35S]GTPγS binding

Human opiate κ receptors, sequence (P41145 whole entry): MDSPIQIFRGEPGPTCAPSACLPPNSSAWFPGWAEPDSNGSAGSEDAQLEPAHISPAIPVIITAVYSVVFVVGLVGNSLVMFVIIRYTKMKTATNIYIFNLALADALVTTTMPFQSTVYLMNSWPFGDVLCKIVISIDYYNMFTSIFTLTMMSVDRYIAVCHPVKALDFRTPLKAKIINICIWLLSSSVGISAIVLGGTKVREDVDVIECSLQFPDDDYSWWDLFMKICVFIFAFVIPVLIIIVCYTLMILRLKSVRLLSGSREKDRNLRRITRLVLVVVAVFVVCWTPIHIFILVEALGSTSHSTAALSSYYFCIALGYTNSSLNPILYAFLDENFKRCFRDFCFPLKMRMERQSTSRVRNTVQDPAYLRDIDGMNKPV

| SMILES | activation at 1 µM [%] | EC50 (GTPγS EC50 (nM)) [nM] | also measured |
| --- | --- | --- | --- |
| CC(C)OC(=O)COC(=O)N1CCN(C(=O)Cc2ccc(Cl)c(Cl)c2)[C@@H]2[C@@H](N3CCCC3)CCC[C@@H]21 [Example 107] | 104 | < 10 |  |
| O=C(Cc1ccc(Cl)c(Cl)c1)N1CCN(Cc2cnc[nH]2)C2CCCC(N3CCCC3)C21 (stereo not shown) [AA, reference compound] |  |  | activation (% of control) at 1 μM: 89 % of control; EC50 [1]: 56 nM |
| O=C(C=Cc1ccoc1)N1CCN(C(=O)Cc2ccc(Cl)c(Cl)c2)C2C(N3CCCC3)CCCC21 (racemic) [Example 79] | 102 |  |  |
| COC(=O)N1CCN(C(=O)Cc2ccc3c(c2)CCCC3)C2C(N3CCCC3)CCCC21 (racemic) [Example 6] | 97 | 10 to 100 |  |
| CCC(=O)N1CCN(C(=O)Cc2ccc(Cl)c(Cl)c2)C2C(N3CCCC3)CCCC21 (racemic) [Example 25] | 102 | < 10 | activation (% of control) at 1 μM: 102 % of control; EC50 (EC50 (nM) [35S]GTPγS binding): 2.55 nM |
| COC(=O)N1CCN(C(=O)Cc2ccc(F)c(F)c2)C2C(N3CCCC3)CCCC21 (racemic) [Example 18] | 112 | < 10 |  |
| COC(=O)CC(=O)N1CCN(C(=O)Cc2ccc(Cl)c(Cl)c2)C2C(N3CCCC3)CCCC21 (racemic) [Example 36] | 93 | < 10 | activation (% of control) at 1 μM: 93 % of control; EC50 (EC50 (nM) [35S]GTPγS binding): 9.74 nM |
| CCNC(=O)N1CCN(C(=O)Cc2ccc(Cl)c(Cl)c2)C2C(N3CCCC3)CCCC21 (racemic) [Example 40] | 96 | < 10 |  |
| COC(=O)N1CCN(C(=O)Cc2ccc(Cl)c(Cl)c2)[C@H]2[C@H]1CCC[C@@H]2N1CCCC1 (single isomer, unassigned) [Reference compound D, reference compound] | 92 |  |  |
| CS(=O)(=O)N1CCN(C(=O)Cc2ccc(Cl)c(Cl)c2)C2C(N3CCC(O)C3)CCCC21.Cl (stereo not shown) [Example 121] |  |  | % activation functional assay at 1 μM: 106%; EC50 (read-out: GTPγS EC50): < 10 nM |
| COC(=O)N1CCN(C(=O)Cc2ccc(C(F)(F)F)cc2)C2C(N3CCCC3)CCCC21 (racemic) [Example 5] | 105 | < 10 |  |
| COC(=O)CC(=O)N1CCN(C(=O)Cc2ccc(Cl)c(Cl)c2)C2C(N3CCCC3)CCCC21 (stereo not shown) [P, reference compound] |  |  | activation (% of control) at 1 μM: 81 % of control; EC50 [1]: 220 nM |
| O=C(CO)N1CCN(C(=O)Cc2ccc(Cl)c(Cl)c2)C2C(N3CCCC3)CCCC21 (racemic) [Example 59] | 109 | 10 to 100 |  |
| CS(=O)(=O)N1CCN(C(=O)Cc2ccc(Cl)c(Cl)c2)[C@@H]2[C@@H](N3CCCC3)CCC[C@@H]21 [Example 102] | 106 | < 10 |  |
| COC(=O)N1CCN(C(=O)Cc2cccc([N+](=O)[O-])c2)C2C(N3CCCC3)CCCC21 (racemic) [Example 3] | 105 | 10 to 100 |  |
| COC(=O)N1CCN(C(=O)Cc2ccc(Cl)c(Cl)c2)[C@H]2[C@H](N3CCCC3)CCC[C@H]21 (single isomer, unassigned) [Reference compound A, reference compound] | 51 |  |  |
| CCCCN1CCN(C(=O)Cc2ccc(Cl)c(Cl)c2)C2C(N3CCCC3)CCCC21 (stereo not shown) [W, reference compound] |  |  | activation (% of control) at 1 μM: 113 % of control; EC50 [1]: 12 nM |
| CS(=O)(=O)N1CCN(C(=O)Cc2ccc(C(F)(F)F)c(Cl)c2)[C@@H]2[C@@H](N3CC[C@H](O)C3)CCC[C@@H]21 [Example 124] | 97 | < 10 |  |
| CC(C)NC(=O)N1CCN(C(=O)Cc2ccc(Cl)c(Cl)c2)C2C(N3CCCC3)CCCC21 (racemic) [Example 42] | 96 | < 10 |  |
| COC(=O)N1CCN(C(=O)Cc2cc(Cl)c3c(c2)OCCO3)C2C(N3CCCC3)CCCC21 (racemic) [Example 7] | 101 | 10 to 100 |  |
| CC(C)(C)OC(=O)N1CCN(C(=O)Cc2ccc(Cl)c(Cl)c2)[C@@H]2[C@@H](N3CCCC3)CCC[C@@H]21 (racemic) [Example 24] | 105 | < 10 |  |
| COC(=O)N1CCN(C(=O)Cc2ccc(Cl)c(Cl)c2)C2C(N3CCC(O)CC3)CCCC21 (racemic) [Example 88] |  |  | % activation functional assay at 1 μM: 107%; EC50 (read-out: GTPγS EC50): < 10 nM |
| O=C(C1CCNC1)N1CCN(C(=O)Cc2ccc(Cl)c(Cl)c2)C2C(N3CCCC3)CCCC21 (racemic) [Example 78] | 64 | 100 to 1000 |  |
| COc1ccc(CN2CCN(C(=O)Cc3ccc(Cl)c(Cl)c3)C3C(N4CCCC4)CCCC32)cc1 (stereo not shown) [X, reference compound] |  |  | activation (% of control) at 1 μM: 91 % of control; EC50 [1]: 26 nM |
| COC(=O)N1CCN(C(=O)Cc2ccc(F)c(OC)c2)C2C(N3CCCC3)CCCC21 (racemic) [Example 21] | 103 | 10 to 100 |  |
| Cl.Cl.Cl.O=C(Cc1ccc(Cl)c(Cl)c1)N1CCN(c2cccnc2)C2CCCC(N3CCCC3)C21 (racemic) [Example 72] |  |  | % activation functional assay at 1 μM: 106%; EC50 (read-out: GTPγS EC50): < 10 nM |

| SMILES | activation at 1 µM [%] | EC50 (GTPγS EC50 (nM)) [nM] | also measured |
| --- | --- | --- | --- |
| COC(=O)N1CCN(C(=O)Cc2ccc3ccccc3c2)C2C(N3CCCC3)CCCC21 (racemic) [Example 10] | 100 | 10 to 100 |  |
| CCN(C)C1CCCC2C1N(C(=O)Cc1ccc(Cl)c(Cl)c1)CCN2C(=O)OC (racemic) [Example 45] | 91 | < 10 |  |
| COC(=O)N1CCN(C(=O)Cc2ccc(F)c(Cl)c2)C2C(N3CCC(O)C3)CCCC21.Cl (stereo not shown) [Example 110] |  |  | % activation functional assay at 1 μM: 92%; EC50 (read-out: GTPγS EC50): 10 to 100 nM |
| O=C(C1CCCC1)N1CCN(C(=O)Cc2ccc(Cl)c(Cl)c2)C2C(N3CCCC3)CCCC21 (racemic) [Example 51] | 97 | < 10 |  |
| O=C(Cc1ccc(Cl)c(Cl)c1)N1CCN(Cc2ccccc2)[C@H]2CCC[C@H](N3CCCC3)[C@H]21 (racemic) [Example 15] | 89 | < 10 | activation (% of control) at 1 μM: 89 % of control; EC50 (EC50 (nM) [35S]GTPγS binding): 7.39 nM |
| COC(=O)C(=O)N1CCN(C(=O)Cc2ccc(Cl)c(Cl)c2)C2C(N3CCCC3)CCCC21 (racemic) [Example 65] | 104 | < 10 |  |
| COC(=O)N1CCN(C(=O)Cc2cccc(Cl)c2)[C@@H]2[C@@H](N3CC[C@H](O)C3)CCC[C@@H]21 [Example 143] | 102 | 10 to 100 |  |
| COC(=O)N1CCN(C(=O)Cc2ccc(Cl)c(Cl)c2)[C@@H]2[C@@H](N3CC[C@@H](O)C3)CCC[C@@H]21 [Example 96] | 109 | < 10 |  |
| COC(=O)N1CCN(C(=O)Cc2ccc(Cl)c(Cl)c2)C2C(N3CCC(O)C3)CCCC21 (stereo not shown) [S, reference compound] |  |  | activation (% of control) at 1 μM (1 µM): 91 % of control; EC50 [1]: 85 nM |
| O=C(Cc1ccc(Cl)c(Cl)c1)N1CCN(Cc2cccnc2)[C@@H]2CCC[C@H](N3CCCC3)[C@H]21 (racemic) [Y, reference compound] |  |  | activation (% of control) at 1 μM: 96 % of control; EC50 (EC50 (nM) [35S]GTPγS binding): 34 nM |
| CC(C)NC(=O)N1CCN(C(=O)Cc2ccc(Cl)c(Cl)c2)C2C(N3CCC(O)C3)CCCC21.Cl (stereo not shown) [Example 120] |  |  | % activation functional assay at 1 μM: 100%; EC50 (read-out: GTPγS EC50): < 10 nM |
| O=C(Cc1ccc(Cl)c(Cl)c1)N1CCN(Cc2ccccc2)[C@@H]2CCC[C@H](N3CCCC3)[C@H]21 (racemic) [H, reference compound] |  |  | activation (% of control) at 1 μM: 97 % of control; EC50 (EC50 (nM) [35S]GTPγS binding): 29 nM |
| CCOC(=O)N1CCN(C(=O)Cc2ccc(Cl)c(Cl)c2)C2C(N3CCCC3)CCCC21 (racemic) [O, reference compound] |  |  | activation (% of control) at 1 μM: 88 % of control; EC50 [1]: 150 nM |
| COC(=O)N1CCN(C(=O)Cc2ccc(OC)c(F)c2)C2C(N3CCCC3)CCCC21 (racemic) [Example 22] | 78 | 100 to 1000 |  |
| CCN(C)[C@H]1CCC[C@H]2[C@@H]1N(C(=O)Cc1ccc(Cl)c(Cl)c1)CCN2C(=O)OC [Example 91] | 106 | < 10 |  |
| COC(=O)N1CCN(C(=O)Cc2ccc(Cl)c(Cl)c2)C2C(N3CCC(O)C3)CCCC21 (stereo not shown) [Example 11] | 92 | 10 to 100 | activation (% of control) at 1 μM (1 µM): 92 % of control; EC50 (EC50 (nM) [35S]GTPγS binding): 11.7 nM |
| O=C(Cc1ccc(Cl)c(Cl)c1)N1CCN(Cc2cccnc2)C2CCCC(N3CCC(O)C3)C21 (mixture of isomers) [AC, reference compound] |  |  | activation (% of control) at 1 μM: 102 % of control; EC50 (EC50 (nM) [35S]GTPγS binding): 77 nM |
| O=C(O)COC(=O)N1CCN(C(=O)Cc2ccc(Cl)c(Cl)c2)C2C(N3CCCC3)CCCC21 (racemic) [Example 69] | 101 | 10 to 100 |  |
| NC(=O)COC(=O)N1CCN(C(=O)Cc2ccc(Cl)c(Cl)c2)C2C(N3CCCC3)CCCC21 (racemic) [Example 68] | 104 | 10 to 100 |  |
| COC(=O)N1CCN(C(=O)Cc2ccc(Cl)c(Cl)c2)C2C(N3CC=CCC3)CCCC21 (racemic) [Example 12] | 96 | 10 to 100 |  |
| COC(=O)N1CCN(C(=O)Cc2ccc(Cl)cc2)C2C(N3CCCC3)CCCC21 (racemic) [Example 47] | 101 | < 10 |  |
| COC(=O)N1CCN(C(=O)Cc2ccc(F)c(F)c2)[C@@H]2[C@@H](N3CC[C@H](O)C3)CCC[C@@H]21 [Example 138] | 108 | 10 to 100 |  |
| CCC(=O)N1CCN(C(=O)Cc2ccc(Cl)c(Cl)c2)C2C(N3CCCC3)CCCC21 (stereo not shown) [N, reference compound] |  |  | activation (% of control) at 1 μM: 63 % of control; EC50 [1]: 600 nM |
| COC(=O)N1CCN(C(=O)Cc2ccc(C(F)(F)F)cc2)[C@@H]2[C@@H](N3CC[C@H](O)C3)CCC[C@@H]21 [Example 139] | 104 | < 10 |  |
| CC(=O)OCC(=O)N1CCN(C(=O)Cc2ccc(Cl)c(Cl)c2)C2C(N3CCCC3)CCCC21 (racemic) [Example 58] | 96 | 10 to 100 |  |
| COC(=O)N1CCN(C(=O)Cc2ccc(Cl)c(F)c2)C2C(N3CCC(O)C3)CCCC21.Cl (stereo not shown) [Example 115] |  |  | % activation functional assay at 1 μM: 103%; EC50 (read-out: GTPγS EC50): 10 to 100 nM |
